From PubChem BioAssay AID1259407 (Chemical Carcinogenesis Research Information System (CCRIS), 2018)
Activity calls are given as the source filed them. No rule for the calls is given here.

Test system: CCRIS mutagenicity, Ames/micronucleus/aberration tests
Test: CCRIS mutagenicity studies
[1] = Test System: AMES SALMONELLA TYPHIMURIUM, Strain/Indicator: TA98, Metabolic Activation: NONE, Method: PREINCUBATION
[2] = Test System: AMES SALMONELLA TYPHIMURIUM, Strain/Indicator: TA100, Metabolic Activation: NONE, Method: PREINCUBATION
[3] = Test System: AMES SALMONELLA TYPHIMURIUM, Strain/Indicator: TA1535, Metabolic Activation: NONE, Method: PREINCUBATION
[4] = Test System: AMES SALMONELLA TYPHIMURIUM, Strain/Indicator: TA1537, Metabolic Activation: NONE, Method: PREINCUBATION
[5] = Test System: Ames Salmonella typhimurium, Strain/Indicator: TA98, Metabolic Activation: None, Method: Preincubation
[6] = Test System: AMES SALMONELLA TYPHIMURIUM, Strain/Indicator: TA98, Metabolic Activation: NONE, Method: STANDARD PLATE
[7] = Test System: AMES SALMONELLA TYPHIMURIUM, Strain/Indicator: TA100, Metabolic Activation: NONE, Method: STANDARD PLATE

For `CCCCC(CC)COC(=O)CCCCCCCCC(=O)OCC(CC)CCCC` (stereo not drawn), the mutagenic call (Test System: AMES SALMONELLA TYPHIMURIUM, Strain/Indicator: TA98, Metabolic Activation: HAMSTER, LIVER, S-9, AROCLOR 1254 (10%), Method: PREINCUBATION) was “inactive; negative”, the mutagenic call [1] was “inactive; negative” and the mutagenic call (Test System: AMES SALMONELLA TYPHIMURIUM, Strain/Indicator: TA98, Metabolic Activation: RAT, LIVER, S-9, AROCLOR 1254 (10%), Method: PREINCUBATION) was “inactive; negative”. The mutagenic call (Test System: AMES SALMONELLA TYPHIMURIUM, Strain/Indicator: TA100, Metabolic Activation: HAMSTER, LIVER, S-9, AROCLOR 1254 (10%), Method: PREINCUBATION) was “inactive; negative”, the mutagenic call [2] was “inactive; negative” and the mutagenic call (Test System: AMES SALMONELLA TYPHIMURIUM, Strain/Indicator: TA100, Metabolic Activation: RAT, LIVER, S-9, AROCLOR 1254 (10%), Method: PREINCUBATION) was “inactive; negative”. For the same compound, the mutagenic call (Test System: AMES SALMONELLA TYPHIMURIUM, Strain/Indicator: TA1535, Metabolic Activation: HAMSTER, LIVER, S-9, AROCLOR 1254 (10%), Method: PREINCUBATION) was “inactive; negative”, the mutagenic call [3] was “inactive; negative” and the mutagenic call (Test System: AMES SALMONELLA TYPHIMURIUM, Strain/Indicator: TA1535, Metabolic Activation: RAT, LIVER, S-9, AROCLOR 1254 (10%), Method: PREINCUBATION) was “inactive; negative”. For the same compound, the mutagenic call (Test System: AMES SALMONELLA TYPHIMURIUM, Strain/Indicator: TA1537, Metabolic Activation: HAMSTER, LIVER, S-9, AROCLOR 1254 (10%), Method: PREINCUBATION) was “inactive; negative”, the mutagenic call [4] was “inactive; negative” and the mutagenic call (Test System: AMES SALMONELLA TYPHIMURIUM, Strain/Indicator: TA1537, Metabolic Activation: RAT, LIVER, S-9, AROCLOR 1254 (10%), Method: PREINCUBATION) was “inactive; negative”. The mutagenic call [5] was “inactive; negative”, the mutagenic call (Test System: Ames Salmonella typhimurium, Strain/Indicator: TA98, Metabolic Activation: Rat, Liver, S9, Phenobarbital and 5,6-benzoflavone, Method: Preincubation) was “inactive; negative” and the mutagenic call (Test System: Ames Salmonella typhimurium, Strain/Indicator: TA100, Metabolic Activation: None, Method: Preincubation) was “inactive; negative”. The mutagenic call (Test System: Ames Salmonella typhimurium, Strain/Indicator: TA100, Metabolic Activation: Rat, Liver, S9, Phenobarbital and 5,6-benzoflavone, Method: Preincubation) was “inactive; negative”, the mutagenic call (Test System: Ames Salmonella typhimurium, Strain/Indicator: TA1535, Metabolic Activation: None, Method: Preincubation) was “inactive; negative” and the mutagenic call (Test System: Ames Salmonella typhimurium, Strain/Indicator: TA1535, Metabolic Activation: Rat, Liver, S9, Phenobarbital and 5,6-benzoflavone, Method: Preincubation) was “inactive; negative”. For the same compound, the mutagenic call (Test System: Ames Salmonella typhimurium, Strain/Indicator: TA1537, Metabolic Activation: None, Method: Preincubation) was “inactive; negative”, the mutagenic call (Test System: Ames Salmonella typhimurium, Strain/Indicator: TA1537, Metabolic Activation: Rat, Liver, S9, Phenobarbital and 5,6-benzoflavone, Method: Preincubation) was “inactive; negative” and the mutagenic call (Test System: E. coli, Strain/Indicator: WP2uvrA/pKM101, Metabolic Activation: None, Method: Preincubation) was “inactive; negative”. For the same compound, the mutagenic call (Test System: E. coli, Strain/Indicator: WP2uvrA/pKM101, Metabolic Activation: Rat, Liver, S9, Phenobarbital and 5,6-benzoflavone, Method: Preincubation) was “inactive; negative”.
With `Cc1cc2nc3ccc(C)c(N)c3nc2cc1N` the mutagenic call [1] was “inactive; negative” and the mutagenic call (Test System: AMES SALMONELLA TYPHIMURIUM, Strain/Indicator: TA98, Metabolic Activation: RAT, LIVER, S-9, PCB, Method: PREINCUBATION) was “active; positive”.
For `BrCc1ccc2cccc3c2c1-c1ccccc1-3`, the mutagenic call [6] was “active; positive” and the mutagenic call [7] was “active; positive”.
For `CC(Br)C(=O)O` (stereo not drawn), the mutagenic call (End Point: IN VITRO CHROMOSOMAL ABERRATIONS, Test System: CHL CELLS, Metabolic Activation: RAT, LIVER, S-9, SODIUM PHENOBARBITAL AND 5,6-BENZOFLAVONE) was “active; positive (structural changes)”, the mutagenic call [1] was “inactive; negative” and the mutagenic call (Test System: AMES SALMONELLA TYPHIMURIUM, Strain/Indicator: TA98, Metabolic Activation: RAT LIVER S-9, PHENOBARBITAL AND BETA-NAPHTHOFLAVONE, Method: PREINCUBATION) was “inactive; negative”. For the same compound, the mutagenic call [2] was “inactive; negative”, the mutagenic call (Test System: AMES SALMONELLA TYPHIMURIUM, Strain/Indicator: TA100, Metabolic Activation: RAT LIVER S-9, PHENOBARBITAL AND BETA-NAPHTHOFLAVONE, Method: PREINCUBATION) was “inactive; negative” and the mutagenic call [3] was “inactive; negative”. For the same compound, the mutagenic call (Test System: AMES SALMONELLA TYPHIMURIUM, Strain/Indicator: TA1535, Metabolic Activation: RAT LIVER S-9, PHENOBARBITAL AND BETA-NAPHTHOFLAVONE, Method: PREINCUBATION) was “active; positive”, the mutagenic call [4] was “inactive; negative” and the mutagenic call (Test System: AMES SALMONELLA TYPHIMURIUM, Strain/Indicator: TA1537, Metabolic Activation: RAT LIVER S-9, PHENOBARBITAL AND BETA-NAPHTHOFLAVONE, Method: PREINCUBATION) was “inactive; negative”. For the same compound, the mutagenic call (Test System: AMES SALMONELLA TYPHIMURIUM, Strain/Indicator: TA1538, Metabolic Activation: NONE, Method: PREINCUBATION) was “inactive; negative”, the mutagenic call (Test System: AMES SALMONELLA TYPHIMURIUM, Strain/Indicator: TA1538, Metabolic Activation: RAT LIVER S-9, PHENOBARBITAL AND BETA-NAPHTHOFLAVONE, Method: PREINCUBATION) was “inactive; negative” and the mutagenic call (Test System: E.COLI, Strain/Indicator: WP2UVRA, Metabolic Activation: NONE, Method: PREINCUBATION) was “inactive; negative”. For the same compound, the mutagenic call (Test System: E.COLI, Strain/Indicator: WP2UVRA, Metabolic Activation: RAT LIVER S-9, PHENOBARBITAL AND BETA-NAPHTHOFLAVONE, Method: PREINCUBATION) was “inactive; negative”.
With `O=C(O)C(Cl)Br` (stereo not drawn) the mutagenic call (End Point: In vivo micronucleus, Test System: Peripheral blood normochromatic erythrocytes, Species: Mouse, Strain/Sex: B6C3F1/Female, Route: Oral) was “inactive; negative”, the mutagenic call (End Point: In vivo micronucleus, Test System: Peripheral blood normochromatic erythrocytes, Species: Mouse, Strain/Sex: B6C3F1/Male, Route: Oral) was “inactive; negative” and the mutagenic call [1] was “inactive; negative”. For the same compound, the mutagenic call (Test System: AMES SALMONELLA TYPHIMURIUM, Strain/Indicator: TA98, Metabolic Activation: RAT, LIVER, S-9, PHENOBARBITAL AND 5,6-BENZOFLAVONE, Method: PREINCUBATION) was “inactive; negative”, the mutagenic call [2] was “active; positive” and the mutagenic call (Test System: AMES SALMONELLA TYPHIMURIUM, Strain/Indicator: TA100, Metabolic Activation: RAT, LIVER, S-9, PHENOBARBITAL AND 5,6-BENZOFLAVONE, Method: PREINCUBATION) was “active; positive”. For the same compound, the mutagenic call (Test System: Ames Salmonella typhimurium, Strain/Indicator: TA98, Metabolic Activation: Hamster, Liver, S9, Aroclor 1254, Method: Preincubation) was “inactive; negative”, the mutagenic call [5] was “inactive; negative” and the mutagenic call (Test System: Ames Salmonella typhimurium, Strain/Indicator: TA98, Metabolic Activation: Rat, Liver, S9, Aroclor 1254, Method: Preincubation) was “inactive; negative”. The mutagenic call (Test System: Ames Salmonella typhimurium, Strain/Indicator: TA100, Metabolic Activation: Hamster, Liver, S9, Aroclor 1254 (30%), Method: Preincubation) was “active; positive”, the mutagenic call (Test System: Ames Salmonella typhimurium, Strain/Indicator: TA100, Metabolic Activation: Rat, Liver, S9, Aroclor 1254 (10%), Method: Preincubation) was “active; positive” and the mutagenic call (Test System: Ames Salmonella typhimurium, Strain/Indicator: TA100, Metabolic Activation: Rat, Liver, S9, Aroclor 1254 (30%), Method: Preincubation) was “active; positive”. For the same compound, the mutagenic call (Test System: E. coli, Strain/Indicator: WP2 uvrA/pKM101, Metabolic Activation: None, Method: Preincubation) was “inactive; negative” and the mutagenic call (Test System: E. coli, Strain/Indicator: WP2 uvrA/pKM101, Metabolic Activation: Rat, Liver, S9, Aroclor 1254 (10%), Method: Preincubation) was “inactive; negative”.
For `Cc1cc(N)cc(C)c1N`, the mutagenic call [6] was “inactive; negative”, the mutagenic call (Test System: AMES SALMONELLA TYPHIMURIUM, Strain/Indicator: TA98, Metabolic Activation: RAT, LIVER, S-9, AROCLOR 1254, Method: STANDARD PLATE) was “inactive; negative” and the mutagenic call [7] was “inactive; negative”. For the same compound, the mutagenic call (Test System: AMES SALMONELLA TYPHIMURIUM, Strain/Indicator: TA100, Metabolic Activation: RAT, LIVER, S-9, AROCLOR 1254, Method: STANDARD PLATE) was “inactive; negative”, the mutagenic call (Test System: AMES SALMONELLA TYPHIMURIUM, Strain/Indicator: TA1535, Metabolic Activation: NONE, Method: STANDARD PLATE) was “inactive; negative” and the mutagenic call (Test System: AMES SALMONELLA TYPHIMURIUM, Strain/Indicator: TA1535, Metabolic Activation: RAT, LIVER, S-9, AROCLOR 1254, Method: STANDARD PLATE) was “inactive; negative”. The mutagenic call (Test System: AMES SALMONELLA TYPHIMURIUM, Strain/Indicator: TA1537, Metabolic Activation: NONE, Method: STANDARD PLATE) was “inactive; negative”, the mutagenic call (Test System: AMES SALMONELLA TYPHIMURIUM, Strain/Indicator: TA1537, Metabolic Activation: RAT, LIVER, S-9, AROCLOR 1254, Method: STANDARD PLATE) was “inactive; negative” and the mutagenic call (Test System: AMES SALMONELLA TYPHIMURIUM, Strain/Indicator: TA1538, Metabolic Activation: NONE, Method: STANDARD PLATE) was “inactive; negative”. The mutagenic call (Test System: AMES SALMONELLA TYPHIMURIUM, Strain/Indicator: TA1538, Metabolic Activation: RAT, LIVER, S-9, AROCLOR 1254, Method: STANDARD PLATE) was “inactive; negative”.
